Measurements published in patent publication US10398725B2, “Ophthalmic compositions and methods of use” (Veloce BioPharma, LLC, priority 2015, dated 2019).

Legend:
Type in all cases: in vivo, human
[1] = tested on: rosacea blepharoconjunctivitis; experiment: Example 3B: person with rosacea blepharoconjunctivitis; settings: before the PVP-I/DMSO gel
Text: B. Rosacea Blepahritis; Treated with 1% PVP-I in 44% USP Grade DMSO with 4% Hydroxyethylcellulose in Water
A person with a past ocular history of glaucoma and pseudophakia presented with long standing ocular dryness, grittiness, periocular erythema and eyelid crusting. On facial inspection, nasal and facial telangiectasia with flushing were evident. Their topical medical regimen included Latanoprost 1 drop QHS OU, Brimonidine 1 drop BID OU, and Dorzolamide/Timolol 1 drop BID OU. The patient endorsed utilization of a variety of medicines and treatments to abate this condition, however, they were of little benefit. Failed therapies included topical steroids, antibiotics including azithromycin, combination medicines, and cyclosporine. Oral medicines including doxycycline and DHA/ALA/EPA were also ineffective.
Further towards the posterior tarsal area, dilated, engorged telangiectatic vessels were present. […] A diagnosis of rosacea blepharoconjunctivitis was made.
The patient was given a topical gel of 1% PVP-I in a dimethylsulfoxide (DMSO) vehicle that was prepared from a licensed compounding pharmacy. The treatment was administered twice daily and delivered by rubbing the gel onto the lash line and eyelid. […] Most prominently, much of the conjunctivitis, anterior lid erythema and thickening had reversed. […]

[2] = tested on: Acanthamoeba corneal ulceration; experiment: Example 16: patient with Acanthamoeba corneal ulceration; settings: before the PVP-I/DMSO composition
Text: Acanthamoeba Corneal Ulceration; Treated with Aqueous 0.4% PVP-I in 39% USP Grade DMSO with Hydroxyethyl Cellulose
This patient was suffering from an Acanthamoeba corneal ulceration. In this type of infection there is often a history of contact lens use and home-made contact lens solutions, however, this is not a prerequisite. Acanthamoeba parasites are often introduced into the eye through a small break in the epithelium and gains foothold to the underlying structures. The patient endorses pain out of proportion with examination. […] The cornea contained multiple bullous lesions with enlarged corneal nerves. There was an overlying epithelial defect and faint ring-shaped infiltrate. The infiltrate had induced minimal stromalysis and the resultant cornea was not thinned. There was no hypopyon, however, cell and flare were present. Corneal cultures were taken, and Acanthamoeba species were identified on non-nutrient agar with E. coli overlay. […] Prepared was a composition as disclosed herein using 0.4% PVP-I in 39% DMSO with hydroxyethyl cellulose. The patient was treated by applying the solution topically to the eye six times daily. […] The corneal had begun the process of re-epithelialization and the ring ulcer began to lessen in intensity. […] A central corneal cicatrix was evident in the area of previous active infiltrate.

[3] = tested on: eyelid associated molluscum contagiosum; experiment: Example 21: patient with eyelid molluscum contagiosum; settings: before the PVP-I/DMSO composition
Procedure: Eyelid Molluscum Contagiosum; Treated with 9% PVP-I in 39% USP Grade DMSO with 3% Hydroxyethylcellulose
This patient was suffering from an eyelid associated molluscum contagiosum. […] The process is often associated with pox virus infection of the epithelial layers. […] Cryotherapy with excision was eventually performed, however, the lesions recurred. Prepared was a composition as disclosed herein using 0.9% PVP-I in 39% DMSO with hydroxyethyl cellulose. The patient was treated by applying the solution topically to the eyelid and margin structures four times daily. […] The lesions had begun to involute and diminish in surface area.

SMILES	outcome of earlier therapies (patient history) [2]	outcome of earlier therapies (patient history) [3]	also measured
CC[C@H]1OC(=O)[C@H](C)[C@@H](O[C@H]2C[C@@](C)(OC)[C@@H](O)[C@H](C)O2)[C@H](C)[C@@H](O[C@@H]2O[C@H](C)C[C@H](N(C)C)[C@H]2O)[C@](C)(O)C[C@@H](C)CN(C)[C@H](C)[C@@H](O)[C@]1(C)O [azithromycin]			outcome of earlier therapies (patient history) [1]: Failed
[H]/N=C(\N/C(=N/[H])NCCCCCCNC(=N)NC(=N)Nc1ccc(Cl)cc1)Nc1ccc(Cl)cc1 [chlorhexidine]	without benefit		
CC(C)Cn1cnc2c(N)nc3ccccc3c21 [imiquimod]		without benefit	
N=C(N)c1ccc(OCCCOc2ccc(C(=N)N)cc2)cc1 [propamidine]	without benefit		
O=C(O)c1ccccc1O [salicylic acid]		without benefit	
